Test results taken from article PMC4805166, “Synthetic Cyclolipopeptides Selective against Microbial, Plant and Animal Cell Targets by Incorporation of D-Amino Acids or Histidine” (PLoS ONE, 2016).
Where “and” joins values, the source holds several entries; their conditions need not be identical. Equal values may be shown once. Read-outs that look alike come from different tables or passages of the source. Where a SMILES comes first, the peptide text is derived from it. [ ]: non-standard residue; d: D form. The star is where a group is joined. Pentanoyl(4-Me) = CC(C)CCC(=O)*; Octanoyl = CCCCCCCC(=O)*; Hexanoyl = CCCCCC(=O)*; Butyryl = CCCC(=O)*

Legend:
[1] = system: erythrocyte suspensions of horse blood; settings: horse erythrocytes 5% vol/vol, TRIS buffer pH 7.2, 1 h at 37°C, absorbance 540 nm, relative to melittin 100 μM, ± confidence interval (α = 0.05); for Hemolysis (%) 150 µM: 150 µM peptide; for Hemolysis (%) 250 µM: 250 µM peptide;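 as to all read-outs here: Read-out is hemoglobin release into the supernatant, with a buffer-only blank subtracted as the 0% baseline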
Description: Blood was centrifuged at 6000g for 5 min, washed three times with TRIS buffer (10 mM TRIS, 150 mM NaCl, pH 7.2) and diluted.
Compounds were solubilized in TRIS buffer and mixed with horse erythrocytes and the final concentrations tested were 250 and 150 μM. The mixture was incubated under continuous shaking for 1 h at 37°C. Then, the tubes were centrifuged at 3500g for 10 min, 80 μL aliquots of the supernatant transferred to 100-well microplates (Bioscreen), diluted with 80 μL water, and the absorbance measured at 540 nm (Bioscreen). Complete hemolysis was obtained by the addition of melittin at 100 μM (Sigma-Aldrich Corporation, Madrid, Spain). The percentage of hemolysis (H) was calculated using the equation: H = 100×[(Op−Ob)/(Om−Ob)], where Op was the density for a given compound concentration, Ob for the buffer, and Om for the melittin positive control.

[2] = system: Fusarium oxysporum f. sp. lycopersici FOL 3 race 2; assay: MIC, antifungal growth inhibition; format: cell-based
Description: Fusarium oxysporum f. sp. lycopersici FOL 3 race 2 (ATCC 201829, American Type Culture Collection) was used as fungal pathogen. The strain was cultured on potato dextrose agar (PDA) plates (Difco) and microconidia were obtained after growth at 25°C. The concentration of conidia was determined using a hemacytometer and adjusted to 10^4 conidia mL^-1.
(§1) Lyophilized peptides were solubilized in sterile Milli-Q water to a final concentration of 1 mM and filter sterilized through a 0.22-μm pore filter. For minimum inhibitory concentration (MIC) assessment, dilutions of the compounds were made to obtain a stock concentration of […]. For antibacterial activity twenty microlitres of each dilution were mixed in a microtiter plate well with 20 μL of the corresponding suspension of the bacterial indicator, 160 μL of Trypticase Soy Broth (TSB) (BioMèrieux, France) to a total volume of 200 μL. For antifungal activity 20 μL of each stock solution were mixed in a microtiter plate well with 80 μL of the corresponding suspension of the fungal pathogen and 100 μL of double concentrated PDB to a total volume of 200 μL containing 0.003% w/v of choramphenicol.
(§2) Three replicates for each strain, compound and concentration were used. Microbial growth was determined by optical density measurement at 600 nm (Bioscreen C, Labsystem, Helsinki, Finland). For antibacterial activity microplates were incubated at 25°C with 20 sec shaking before hourly absorbance measurement for 48 h. For antifungal activity microplates were incubated at 20°C with 1 min shaking before absorbance measurement that were done every two hours during seven days. The experiment was repeated twice. The MIC was taken as the lowest compound concentration with no growth at the end of the experiment.

[3] = system: Pseudomonas syringae pv. syringae EPS94; format: cell-based; settings: 48 h
Description: (§3) The following plant pathogenic bacterial strains were used: Erwinia amylovora PMV6076 (Institut National de la Recherche Agronomique, Angers, France), Pseudomonas syringae pv. syringae EPS94 (Institut de Tecnologia Agroalimentària, Universitat de Girona, Spain) and Xanthomonas axonopodis pv. vesicatoria 2133–2 (Instituto Valenciano de Investigaciones Agrarias, Valencia, Spain). All bacteria were stored in Luria Bertani (LB) broth supplemented with glycerol (20%) and maintained at -80°C. Bacteria were scrapped from LB agar after growing for 24–48 h at 25°C. The cell material was suspended in sterile water to obtain a suspension of 10^8 CFU mL^-1.
as §1, §2

[4] = system: Xanthomonas axonopodis pv. vesicatoria 2133–2; format: cell-based; settings: TSB, 25°C, 48 h, OD 600 nm; tested at 3.1, 6.2, 12.5, 25, 50 μM; three replicates, experiment repeated twice; MIC = lowest concentration with no growth
Description: as §3, §1, §2

[5] = system: Erwinia amylovora PMV6076; assay: MIC, in vitro growth inhibition; format: cell-based; settings: TSB, 25°C, 48 h, OD 600 nm; tested at 3.1, 6.2, 12.5, 25, 50 μM; three replicates, experiment repeated twice; MIC = lowest concentration with no growth
Description: as §3, §1, §2

[6] = PDB with 0.003% chloramphenicol, 20°C, seven days, OD 600 nm, tested at 3.1, 6.2, 12.5, 25, 50 μM, three replicates, repeated twice

Row | Molecule | Hemolysis (%) 150 µM [1] [%] | MIC Fo [2, 6] | MIC Pss [3] [µM] | MIC Xav [4] [µM] | MIC Ea [5] [µM] | Hemolysis (%) 250 µM [1] [%] | MIC Pss ([3]; TSB, 25°C, OD 600 nm, tested at 3.1, 6.2, 12.5, 25, 50 μM, three replicates, experiment repeated twice, MIC = lowest concentration with no growth) [µM] | MIC Fo [2] [µM]
1 | CCCCCC(=O)NCCCC[C@H]1NC(=O)[C@H](CCC(N)=O)NC(=O)[C@H](CC(C)C)NC(=O)[C@H](CCCCN)NC(=O)[C@H](CCCCN)NC(=O)[C@H](Cc2ccccc2)NC(=O)[C@H](CCCCN)NC(=O)[C@H](CCCCN)NC(=O)[C@H](CC(C)C)NC(=O)[C@H](CCCCN)NC1=O [BPC684] (cyclo(FKKLQ[dK](Hexanoyl)KLKK)) | 8 ± 1 | 6.2 to 12.5 µM | 12.5 to 25 | 6.2 to 12.5 | 25 to 50 |  |  | 
2 | CCCC(=O)NCCCC[C@@H]1NC(=O)[C@H](CCCCN)NC(=O)[C@H](CCC(N)=O)NC(=O)[C@H](CC(C)C)NC(=O)[C@H](CCCCN)NC(=O)[C@H](CCCCN)NC(=O)[C@H](Cc2c[nH]cn2)NC(=O)[C@H](CCCCN)NC(=O)[C@H](CCCCN)NC(=O)[C@H](CC(C)C)NC1=O [BPC720] (cyclo(HKKLQKK(Butyryl)LKK)) | 3 ± 1 | <3.1 µM | 12.5 to 25 | 12.5 to 25 | >50 | 4 ± 1 |  | 
3 | CCCCCCCC(=O)NCCCC[C@H]1NC(=O)[C@H](CCCCN)NC(=O)[C@H](CC(C)C)NC(=O)[C@H](CCCCN)NC(=O)[C@H](CCCCN)NC(=O)[C@H](CCC(N)=O)NC(=O)[C@H](CC(C)C)NC(=O)[C@H](CCCCN)NC(=O)[C@H](CCCCN)NC(=O)[C@H](Cc2ccccc2)NC1=O [BPC666, c(KKLKk(CO-C7H15)FKKLQ)] (cyclo(FKKLQKKLK[dK](Octanoyl))) | 61 ± 2 | 6.2 to 12.5 µM | 12.5 to 25 | 12.5 to 25 | 25 to 50 | 73 ± 3 |  | 
4 | CCCCCC(=O)NCCCC[C@H]1NC(=O)[C@H](CCCCN)NC(=O)[C@H](CCC(N)=O)NC(=O)[C@H](CC(C)C)NC(=O)[C@H](CCCCN)NC(=O)[C@H](CCCCN)NC(=O)[C@H](Cc2ccccc2)NC(=O)[C@H](CCCCN)NC(=O)[C@H](CCCCN)NC(=O)[C@H](CC(C)C)NC1=O [BPC678] (cyclo(FKKLQK[dK](Hexanoyl)LKK)) | 68 ± 3 | 3.1 to 6.2 µM | 12.5 to 25 | 6.2 to 12.5 | 25 to 50 | 73 ± 4 |  | 
5 | CC(C)CCC(=O)NCCCC[C@@H]1NC(=O)[C@H](CCCCN)NC(=O)[C@H](CC(C)C)NC(=O)[C@H](CCCCN)NC(=O)[C@H](CCCCN)NC(=O)[C@H](CCC(N)=O)NC(=O)[C@H](CC(C)C)NC(=O)[C@H](CCCCN)NC(=O)[C@H](CCCCN)NC(=O)[C@H](Cc2c[nH]cn2)NC1=O [BPC638, c(KKLKK(CO-isoC5H11)HKKLQ)] (cyclo(HKKLQKKLKK(Pentanoyl(4-Me)))) | 6 ± 2 | 6.2 to 12.5 µM | 6.2 to 12.5 | 25 to 50 | 25 to 50 | 8 ± 5 |  | 
6 | c(KKLKK(CO-C6H13)FKKLQ) [BPC592] |  | 12.5 to 25 µM |  | 6.2 to 12.5 | 25 to 50 |  | 12.5 to 25 | 
7 | CCCC(=O)NCCCC[C@H]1NC(=O)[C@H](CCCCN)NC(=O)[C@H](CC(C)C)NC(=O)[C@H](CCCCN)NC(=O)[C@H](CCCCN)NC(=O)[C@H](CCC(N)=O)NC(=O)[C@H](CC(C)C)NC(=O)[C@H](CCCCN)NC(=O)[C@H](CCCCN)NC(=O)[C@H](Cc2ccccc2)NC1=O [BPC702, c(KKLKk(CO-C3H7)FKKLQ)] (cyclo(FKKLQKKLK[dK](Butyryl))) | 1 ± 0.1 | < 12.5 µM and 3.1 to 6.2 µM |  |  | 25 to 50 |  |  | 3.1 to 6.2
